Read-outs that look alike come from different tables or passages of the source.
Experiments:
[1] = test system: acetylation level of α-tubulin in HCT116 cells; assay: Assay on acetylation level of α-tubulin, HCT116 cells; assay type: cell-based; conditions: Homo sapiens, HCT-116, 6 h
Protocol: A375/HCT116/HCC827 cells at a logarithmic growth phase were taken, digested with a […] (trypsin), centrifuged, counted, and plated in a 96-well plate at an appropriate cell density (30,000 cells/well) at 100 µL/well, and an appropriate amount of PBS was added around the plate for water sealing. The next day, the cells were treated with the compounds at different concentrations (starting at 100 μM, 5-fold dilution, 9 concentration gradients). After 6 h, the medium was pipetted out and the cells were washed twice with 100 μL of PBST. The cells were then immobilized in 4% paraformaldehyde, and the plate was incubated at room temperature for 20 min. The stationary liquid was discarded and the cells were washed with PBST. 150 μL of special blocking buffer (containing 1% Triton-100) was added to each well for blocking at room temperature for 2 h, and the plate was washed with PBS to remove excess blocking buffer. α-tubulin (DM1A) mouse mAb and acetyl-α-tubulin (Lys40) (D20G3) XP rabbit mAb were diluted at a 1:2000 ratio with a blocking buffer containing 0.033% Triton-100. The dilutions were added to the 96-well plate and the plate was incubated overnight at 4° C. Meanwhile, a blank control group was set. The next day, the plate was washed twice with PBST. Secondary anti-mouse IgG (H+L) (DyLight™ 680 conjugate) and anti-rabbit IgG (H+L) (DyLight™ 800 conjugate) were diluted at a 1:2000 ratio with a blocking buffer containing 0.033% Triton-100. The dilutions were added to a 96-well plate and the plate was incubated at room temperature for 2 h. The plate was washed twice with PBST and once with PBS. Fluorescence signals at 700 nm and 800 nm were detected with a Li-COR Odyssey two-color near-infrared laser imager.

HDAC6 = HDAC6 (Homo sapiens (Human), UniProt Q9UBN7); assay: HDAC6 enzymatic activity assay; assay type: biochemical
Sequence of HDAC6 (Q9UBN7 whole entry): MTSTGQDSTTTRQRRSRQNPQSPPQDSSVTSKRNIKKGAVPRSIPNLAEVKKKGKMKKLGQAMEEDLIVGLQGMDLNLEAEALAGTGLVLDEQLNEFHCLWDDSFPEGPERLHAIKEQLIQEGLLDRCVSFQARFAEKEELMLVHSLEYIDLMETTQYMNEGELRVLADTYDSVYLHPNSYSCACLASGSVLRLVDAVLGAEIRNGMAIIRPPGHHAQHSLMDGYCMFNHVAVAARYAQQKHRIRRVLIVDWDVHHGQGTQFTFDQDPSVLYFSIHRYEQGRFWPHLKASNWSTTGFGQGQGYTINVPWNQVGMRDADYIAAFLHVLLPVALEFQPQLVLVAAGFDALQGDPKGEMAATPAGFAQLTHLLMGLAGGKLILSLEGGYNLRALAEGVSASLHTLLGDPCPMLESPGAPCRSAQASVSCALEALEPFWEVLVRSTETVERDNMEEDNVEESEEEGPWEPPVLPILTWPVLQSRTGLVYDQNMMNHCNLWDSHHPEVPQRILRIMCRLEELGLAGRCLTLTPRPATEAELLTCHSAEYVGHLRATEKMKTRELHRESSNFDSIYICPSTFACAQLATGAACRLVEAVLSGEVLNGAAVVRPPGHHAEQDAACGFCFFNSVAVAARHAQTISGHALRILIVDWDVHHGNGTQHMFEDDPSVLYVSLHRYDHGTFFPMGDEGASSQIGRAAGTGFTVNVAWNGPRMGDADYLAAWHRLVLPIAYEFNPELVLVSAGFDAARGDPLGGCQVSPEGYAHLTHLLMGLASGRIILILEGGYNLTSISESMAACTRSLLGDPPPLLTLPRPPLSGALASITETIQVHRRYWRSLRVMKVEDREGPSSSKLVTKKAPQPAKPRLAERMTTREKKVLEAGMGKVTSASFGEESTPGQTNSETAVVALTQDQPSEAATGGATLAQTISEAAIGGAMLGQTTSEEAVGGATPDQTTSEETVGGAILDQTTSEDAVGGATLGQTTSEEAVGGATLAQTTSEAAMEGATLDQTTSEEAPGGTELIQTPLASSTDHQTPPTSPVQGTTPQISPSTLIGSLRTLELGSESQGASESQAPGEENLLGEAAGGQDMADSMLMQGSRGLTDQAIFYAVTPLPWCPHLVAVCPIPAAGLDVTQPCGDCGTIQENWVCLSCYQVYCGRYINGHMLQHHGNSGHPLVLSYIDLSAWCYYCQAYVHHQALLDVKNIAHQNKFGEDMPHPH
Protocol: The inhibitory activity of the compounds of the present application against HDAC6 was evaluated by an enzymatic activity assay. HDAC6 (Abcam), test compounds, and a 20 µM substrate solution (Ac-GAK(Ac)-AMC) were each added to a 384-well plate, and the plate was incubated at 37° C. for 30 min. […] and […] were added, and the plate was incubated at room temperature for 15 min. […] IC50 was obtained by fitting using GraphPadPrism 7.0 software.

[2] = Brain-to-blood drug concentration ratio of mice; assay type: in vivo; conditions: mouse, 5 mg/kg PO
Protocol: On the day of administration, mice were weighed for actual body weight and the administration volume was calculated. In each group of 9 mice, the compound was administered by single intravenous (IV) injection or intragastric (PO) administration. Whole blood samples were collected via the orbit at prescribed time points. After blood sample collection, the samples were immediately transferred to labeled commercial sample tubes containing K2-EDTA (0.85-1.15 mg), followed by centrifugation (3200×g, 4° C., 10 min) and plasma collection. The plasma was transferred to a pre-cooled centrifuge tube, frozen in dry ice, and stored in an ultra-low temperature freezer at −60° C. or lower until the LC-MS/MS analysis. 20 μL of a plasma sample or brain tissue homogenate was taken and 80 μL of an internal standard solution (50 ng/mL solution of propafenone in acetonitrile) was added. The plate was sealed with a film sealer at 165° C., shaken on a micro oscillator (maximum vibration speed) for 10 min, and centrifuged at 4000 rpm for 20 min using a low-speed benchtop centrifuge, 10 μL of supernatant was transferred and 90 μL of acetonitrile was added. The mixture was vortexed and mixed well, and then the plate was sealed with the film sealer at 165° C. After the mixture was vortexed and mixed well, 1 μL of supernatant was taken for LC-MS/MS analysis. Plasma drug concentration data for the compounds were processed in a non-compartmental model using WinNonlin Version 6.3 (Pharsight, Mountain View, CA) pharmacokinetic software. The relevant pharmacokinetic parameters were calculated by a linear logarithmic trapezoid method.
Data processing: brain-to-blood drug concentration ratio of mice at the same time point=drug concentration in brain tissue/drug concentration in plasma

[3] = Pharmacokinetic test in mice (IV and PO); assay type: in vivo, BALB/c mice; conditions: for Cmax / AUC(0-inf) / AUC(0-t) / MRT inf / Vd / Tmax: BALB/c, mouse, plasma; for MRT inf: read-out: MRT(0-∞); for Vd: read-out: Vz
Protocol: In this example, the pharmacokinetic behavior of the compounds after intravenous injection (IV) and intragastric (PO) administration in BALB/c mice was tested.
On the day of administration, mice were weighed for actual body weight and the administration volume was calculated. Each compound was tested in two groups with 3 mice in each group, one group administered by single intravenous injection and the other group of mice by single intragastric administration. Whole blood samples were collected via the orbit at prescribed time points (0.25 h, 0.5 h, 1 h, 2 h, 4 h, 8 h, and 24 h after administration). After blood sample collection, the samples were immediately transferred to labeled commercial sample tubes containing K2-EDTA (0.85-1.15 mg), followed by centrifugation (3200×g, 4° C., 10 min) and plasma collection. The plasma was transferred to a pre-cooled centrifuge tube, frozen in dry ice, and stored in an ultra-low temperature freezer at −60° C. or lower until the LC-MS/MS analysis.
Plasma concentrations were determined by a LC-MS/MS method. Plasma drug concentration data for compounds 1 and 2 were processed in a non-compartmental model using WinNonlin Version 6.3 (Pharsight, Mountain View, CA) pharmacokinetic software. The relevant pharmacokinetic parameters were calculated by a linear logarithmic trapezoid method.

[4] = brain, read-out: Brain drug concentration
[5] = plasma, read-out: Blood drug concentration

Row | SMILES | EC50 [1] | IC50 (HDAC6) | concentration at 2 h [2, 4] | Kp at 2 h ([2]; brain/plasma) | concentration at 2 h [2, 5] | Cmax ([3]; po, 5 mg/kg, read-out: C0/Cmax) | AUC(0-inf) ([3]; mice, IV 1 mg/kg) | AUC(0-t) ([3]; mice, IV 1 mg/kg) | Cmax ([3]; mice, IV 1 mg/kg (C0)) | MRT inf ([3]; mice, IV 1 mg/kg) | Vd ([3]; mice, IV 1 mg/kg) | AUC(0-inf) ([3]; mice, PO 5 mg/kg) | AUC(0-t) ([3]; mice, PO 5 mg/kg) | Tmax ([3]; mice, PO 5 mg/kg) | MRT inf ([3]; mice, PO 5 mg/kg) | CLz ([3]; mice, IV 1 mg/kg) | t½z ([3]; mice, IV 1 mg/kg) | F ([3]; mice, PO 5 mg/kg) | t½z ([3]; mice, PO 5 mg/kg) | concentration at 1 h [2, 4] | other results
1 | O=S1(=O)c2cc(-c3nnc(C(F)F)o3)ccc2CN1[C@@H](c1ccccn1)[C@H](O)c1ccc(F)cn1 (single isomer, unassigned) [Compound 84j-A] | 544 nM | 42.7 nM | – | – | – | – | – | – | – | – | – | – | – | – | – | – | – | – | – | – | –
2 | CC(F)(F)C(=O)N[C@H]1[C@H](N2Cc3ccc(-c4nnc(C(F)F)o4)cc3S2(=O)=O)CCCC1(F)F [Compound 7] | 245 nM | 56.7 nM | – | – | – | – | – | – | – | – | – | – | – | – | – | – | – | – | – | – | –
3 | CC(F)(F)C(=O)N[C@@H]1CCCC(F)(F)[C@H]1N1Cc2ccc(-c3nnc(C(F)F)o3)cc2S1(=O)=O [Compound 10] | 262 nM | 43.1 nM | 338 ng/mL | 0.17 | 2020 ng/mL | 4.77 µM | 3.68 µM·h | 3.48 µM·h | 1.72 µM | 2.5 h | 1.5 L/kg | 21.5 µM·h | 19.9 µM·h | 0.5 h | 3.3 h | 8.3 mL/min/kg | 1.9 h | 117.1% | 2.1 h | – | concentration at 8 h ([2]; brain, 8 h, read-out: Brain drug concentration): 80 ng/mL; Kp at 8 h ([2]; brain/plasma, 8 h): 0.29; concentration at 8 h ([2]; plasma, 8 h, read-out: Blood drug concentration): 277 ng/mL
4 | O=C(N[C@@H]1COCC[C@H]1N1Cc2ccc(-c3nnc(C(F)F)o3)cc2S1(=O)=O)C(F)F [Compound 13] | 133 nM | – | 174 ng/mL | 0.09 | 1780 ng/mL | 7.13 µM | 4.53 µM·h | 4.42 µM·h | 3.05 µM | 1.85 h | 1.05 L/kg | 22 µM·h | 21.4 µM·h | 0.5 h | 2.63 h | 8 mL/min/kg | 1.52 h | 97.0% | 1.52 h | 218 ng/mL | Kp at 1 h ([2]; brain/plasma): 0.07; concentration at 1 h [2, 5]: 2950 ng/mL
5 | O=C(N[C@@H]1CCOC[C@H]1N1Cc2ccc(-c3nnc(C(F)F)o3)cc2S1(=O)=O)C(F)F [Compound 14] | 124 nM | – | 42.8 ng/mL | 0.03 | 1380 ng/mL | 7.27 µM | 4.27 µM·h | 4.22 µM·h | 3.15 µM | 1.5 h | 0.928 L/kg | 15.2 µM·h | 14.8 µM·h | 0.5 h | 1.88 h | 8.4 mL/min/kg | 1.277 h | 71.27% | 1.48 h | 85.6 ng/mL | Kp at 1 h ([2]; brain/plasma): 0.03; concentration at 1 h [2, 5]: 2450 ng/mL

Further lines, with some results ahead:

Row | EC50 [1] | IC50 (HDAC6) | concentration at 2 h [2, 4] | Kp at 2 h ([2]; brain/plasma) | concentration at 2 h [2, 5] | Cmax ([3]; po, 5 mg/kg, read-out: C0/Cmax) | AUC(0-inf) ([3]; mice, IV 1 mg/kg) | AUC(0-t) ([3]; mice, IV 1 mg/kg) | Cmax ([3]; mice, IV 1 mg/kg (C0)) | MRT inf ([3]; mice, IV 1 mg/kg) | Vd ([3]; mice, IV 1 mg/kg) | AUC(0-inf) ([3]; mice, PO 5 mg/kg) | AUC(0-t) ([3]; mice, PO 5 mg/kg) | Tmax ([3]; mice, PO 5 mg/kg) | MRT inf ([3]; mice, PO 5 mg/kg) | CLz ([3]; mice, IV 1 mg/kg) | t½z ([3]; mice, IV 1 mg/kg) | F ([3]; mice, PO 5 mg/kg) | t½z ([3]; mice, PO 5 mg/kg) | concentration at 1 h [2, 4] | SMILES | other results
6 | 618 nM | 160 nM | – | – | – | – | – | – | – | – | – | – | – | – | – | – | – | – | – | – | O=S1(=O)c2cc(-c3nnc(C(F)F)o3)ccc2CN1[C@@H](c1ccc(F)cn1)[C@H](O)c1ccc(F)cn1 (single isomer, unassigned) [Compound 88j-A-B] | –
7 | 239 nM | – | 16.2 ng/mL | 0.02 | 930 ng/mL | 5.13 µM | 1.71 µM·h | 1.7 µM·h | 3.47 µM | 0.542 h | 1.03 L/kg | 8.71 µM·h | 8.64 µM·h | 0.25 h | 1.47 h | 19.58 mL/min/kg | 0.605 h | 101.8% | 1.149 h | 44.8 ng/mL | O=C(N[C@@H]1CCCC[C@H]1N1Cc2ccc(-c3nnc(C(F)F)o3)cc2S1(=O)=O)N1CCOCC1 [Compound 113] | Kp at 1 h ([2]; brain/plasma): 0.03; concentration at 1 h [2, 5]: 1400 ng/mL
8 | 351 nM | 97.5 nM | – | – | – | – | – | – | – | – | – | – | – | – | – | – | – | – | – | – | O=C(N[C@@H]1CCCC[C@H]1N1Cc2ccc(-c3nnc(C(F)F)o3)cc2S1(=O)=O)C1CC1 [Compound 114] | –
